From US8153784B2, “Imaging of enzyme activity” (The General Hospital Corporation, priority 2004, dated 2012)

How the values were obtained:
plasma proteins = test: Substrate binding to plasma components (Biospin P-6 elution with 111In tracer); format: in vitro ADME; details: human plasma; eluting experiments
Experimental: The follow experiments were performed to determine the effect of MPO-activated substrate oligomerization with plasma proteins to form larger aggregate. Human plasma was extracted from healthy donors by the use of Polymorphprep (Accurate Chemicals) and centrifugation according to the manufacturer's instructions. Aliquots of 3 mM solution of bis-5-HT-DTPA(Gd) was mixed with aliquots of ^111In-bis-5-HT-DTPA as a tracer, with or without human plasma and with and without MPO/H2O2. […] Radioactivity retained in the columns and the eluted material were counted separately in 1480 Wizard gamma counter (Perkin-Elmer) and the fraction of radioactivity bound to proteins was calculated (n=3 independent experiments).

[1] = biological target: T1, human myeloperoxidase (MPO) (Homo sapiens, UniProt P05164); test: Pseudo-first-order rate constants of MPO-mediated conversion (relaxation times over time, 0.47 T); format: biochemical
T1 construct: purchased BioDesign Inc
T1 sequence (P05164 279-745 limits assumed): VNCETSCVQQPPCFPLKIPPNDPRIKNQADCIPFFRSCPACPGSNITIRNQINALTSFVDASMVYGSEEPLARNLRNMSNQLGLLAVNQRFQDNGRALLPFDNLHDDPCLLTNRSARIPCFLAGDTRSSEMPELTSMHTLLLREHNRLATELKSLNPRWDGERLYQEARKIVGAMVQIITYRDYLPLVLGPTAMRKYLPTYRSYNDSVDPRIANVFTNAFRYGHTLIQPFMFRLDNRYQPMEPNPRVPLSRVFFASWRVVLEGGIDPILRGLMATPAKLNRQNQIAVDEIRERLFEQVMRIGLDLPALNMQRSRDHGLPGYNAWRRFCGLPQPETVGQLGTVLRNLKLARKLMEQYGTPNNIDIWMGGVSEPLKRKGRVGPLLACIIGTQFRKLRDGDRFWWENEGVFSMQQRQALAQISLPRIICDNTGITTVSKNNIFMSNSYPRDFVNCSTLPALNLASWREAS
T1 sequence (P05164 165-273 limits assumed): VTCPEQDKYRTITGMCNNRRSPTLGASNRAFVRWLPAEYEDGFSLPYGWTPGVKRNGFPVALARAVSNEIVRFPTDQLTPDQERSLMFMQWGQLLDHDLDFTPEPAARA
Experimental: Kinetics of the samples were observed by measuring T1 and T2 at 0.47 T and 40° C. of the samples over at least a 24 hour period. At different time points, 1 M of sodium azide (final concentration=0.17 M) was added to stop the enzyme mediated reaction. The resultant progress curve was fitted with an empirical mathematical model and analyzed according to the Guggenheim method to obtain the pseudo-first-order rate constants (Guggenheim E A. Philos. Mag. 1926; 2:538).
An important property of a suitable substrate for an enzyme is the kinetics of enzymatic reaction. To determine the utility of the paramagnetic complexes as suitable substrates for human myeloperoxidase (MPO), we measured the pseudo-first-order rate constant of these substrates in MPO, and compared to the same substrates' reactions in Horse Radish Peroxidase (HRP) by monitoring the changes in relaxation time over time. […] The results shown were obtained using T1 measurements. T2 measurements yielded nearly identical results. The results are presented as mean±SD. N/A=not applicable.

endogenous mouse MPO = biological target: T2, endogenous mouse MPO (Mus musculus, UniProt P11247); test: LPS induced myositis, MR imaging at 4.7 T; format: in vivo; details: mice with LPS induced myositis
T2 construct: endogenous in cells; host or cells: inflammatory cells recruited by LPS in C57BL6 male mice (Matrigel site in the thigh, or flank muscle myositis)
T2 sequence (P11247 139-718): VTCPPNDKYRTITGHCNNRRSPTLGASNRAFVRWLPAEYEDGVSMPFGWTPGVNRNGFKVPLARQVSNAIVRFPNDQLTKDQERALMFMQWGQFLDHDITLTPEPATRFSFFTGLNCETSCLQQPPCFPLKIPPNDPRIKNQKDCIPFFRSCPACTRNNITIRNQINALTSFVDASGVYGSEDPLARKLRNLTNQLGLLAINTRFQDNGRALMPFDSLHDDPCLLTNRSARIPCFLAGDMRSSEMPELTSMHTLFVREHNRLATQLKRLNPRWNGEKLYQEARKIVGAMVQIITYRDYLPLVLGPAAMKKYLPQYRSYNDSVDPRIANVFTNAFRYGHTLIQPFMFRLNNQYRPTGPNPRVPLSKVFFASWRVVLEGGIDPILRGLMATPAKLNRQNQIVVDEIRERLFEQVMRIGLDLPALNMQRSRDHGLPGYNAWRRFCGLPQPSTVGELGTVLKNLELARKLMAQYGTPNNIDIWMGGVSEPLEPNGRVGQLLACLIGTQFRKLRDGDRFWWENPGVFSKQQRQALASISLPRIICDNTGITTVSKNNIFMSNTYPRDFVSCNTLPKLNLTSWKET
Experimental: The MR imaging experiments were performed on a 1.5 T GE Excite scanner and a 4.7 T Bruker Pharmascan scanner. For all MR imaging experiments, precontrast T2-(TR=2000, TE=100, ETL=8, NEX=4, fast spin echo sequence) and T1-weighted images (TR=500, TE=11, NEX=4, spin echo sequence) with fat saturation were initially performed to locate the gels or area of inflammation. The substrates (0.3 mmol/kg) were subsequently injected via the tail vein of the mouse. The mouse was immediately imaged after the injection of the contrast agent using multiple T1-weighted sequences with fat saturation for at least 3 hours.
Ten-week old C57BL6 male mice were obtained from Jackson Laboratories. A total of 22 mice were used for the study. • 1. MPO/Matrigel imaging experiments: Matrigel™ (Beckton-Dickinson), a […] basement membrane matrix gel was used to immobilize human MPO and glucose oxidase (to supply H2O2 required for detecting MPO oxidative activity, Calbiochem). This was chosen to reflect deposits of human MPO in inflamed tissue in a mouse model. 400 μL of a mixture of Matrigel™ and MEM (Cambrex) was injected slowly into the thighs of each mouse one hour prior to imaging. The right thigh mixture also contained 15 U of MPO and 4 U of glucose oxidase (Calbiochem), while the left thigh mixture contained no enzyme and thus serves as an internal control. […]

| fraction of the final relaxation rate obtained within the first 5 minutes [1] | Pseudo first-order rate constant ([1]; from T1 measurements, mean±SD) [s⁻¹] | enhancement at 50 minutes after injection (endogenous mouse MPO) | SMILES | binding of MPO-activated oligomers to plasma proteins compared to the substrate itself (plasma proteins) |
| --- | --- | --- | --- | --- |
|  |  |  | O=C([O-])CN(CCN(CC(=O)[O-])CC(=O)NCCc1c[nH]c2ccc(O)cc12)CCN(CC(=O)[O-])CC(=O)NCCc1c[nH]c2ccc(O)cc12.[Gd+3] [2Gd^3+] | over 3 fold |
| more than 80% | 0.0063 | still significant enhancement | CC(C(=O)NCC(=O)NCCc1c[nH]c2ccc(O)cc12)N1CCN(CC(=O)[O-])CCN(CC(=O)[O-])CCN(CC(=O)[O-])CC1.[Gd+3] (stereo not shown) [5-HT-DOTA(Gd), Glycylmethyl DOTA(Gd) 5-Hydroxytryptamide] |  |
